Experimental data from patent US11267826B2, “Penicillin-binding protein inhibitors” (priority 2017, dated 2022).

Key:
[1] = test system: E. coli DH5a with pLBII plasmid with no β-lactamase gene; test: Broth microdilution MIC, engineered E. coli control strain (pLBII plasmid, no β-lactamase gene); assay type: cell-based; conditions: Escherichia coli, read-out: MIC, β-lactamase None
Method: (§1) To determine the ability of test compounds to potentiate the inhibition of the growth of bacterial strains, classic cell based broth microdilution MIC assays were employed. MIC assays are performed according to CLSI methods except where otherwise noted (CLSI, 2011 and CLSI, 2009). The reference strain S. aureus ATCC 29213 and the hyper-permeable E. coli 901C were used to determine the ability of the PBP compounds to inhibit bacterial growth. Briefly, cryo-preserved bacterial cultures of clinical strains are streaked for isolation on appropriate agar medium, in this case Mueller Hinton II agar. Following incubation to allow formation of colonies these plates are sealed with parafilm and stored refrigerated for up to two weeks. For preparation of assay inocula and to ensure low variability, at least 5 colonies are picked from the agar plates with an inoculating loop and aseptically transferred to a culture tube containing 3 mL of Mueller-Hinton Broth (supplemented with divalent cations to required levels based on Manufacturers' certification). The broth culture is grown for 3-5 hours at 37° C. with shaking at 200 rpm. Meanwhile, 2-fold serial dilutions of test compounds are conducted in a 96 well plate with a final volume of 75 μL per well at 2-fold the final desired concentration. After the dilution plates are set up the growing cultures are then diluted in a cuvette containing MH II broth and the optical density is measured at 600 nm. Inocula are diluted such that 75 μL of this culture in Mueller-Hinton Broth results in a starting bacterial concentration of 5×10^5 CFU/mL when added to the dilution plates. The plates are incubated 16-20 hours at 37° C. The MIC is read visually as the lowest concentration well with no bacterial growth.
(§2) To determine if test compounds were affected by various known β-lactamases, the inhibition of the growth of engineered strains of Escherichia coli harboring select single β-lactamases were tested. […]

[2] = test system: engineered strains of Escherichia coli harboring select single β-lactamases; test: MIC across the panel of engineered E. coli strains harboring select single β-lactamases; assay type: cell-based; conditions: strains expressing β-lactamases compared with control strain, result in words
Method: To determine if test compounds were affected by various known β-lactamases, the inhibition of the growth of engineered strains of Escherichia coli harboring select single β-lactamases were tested. These strains were constructed by cloning the gene encoding the particular β-lactamase into the NdeI and BamHI restriction endonuclease sites of plasmid pLBII, placing the gene(s) under the control of the Lac promoter.

[3] = test system: E. coli DH5a harboring TEM-24; test: Broth microdilution MIC, engineered E. coli expressing TEM-24; assay type: cell-based; conditions: Escherichia coli, read-out: MIC, β-lactamase TEM
Method: as §1, §2

[4] = test system: hyper-permeable E. coli 901C; test: Broth microdilution MIC assay, hyper-permeable E. coli; assay type: cell-based; conditions: Escherichia coli, read-out: E. coli 901C MIC
Method in brief: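 Growth inhibition is measured by CLSI broth microdilution. Log-phase bacteria (5×10^5 CFU/mL starting density) are incubated with 2-fold compound dilutions in cation-supplemented MH broth for 16-20 hours at 37° C, and the MIC is scored visually.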

E. coli K12 PBP1b = biological target: T1, E. coli K12 PBP1b (Escherichia coli, UniProt P02919); test: Competition binding assay using Bodipy-FL boronic acid probe (Example 125); conditions: Bodipy-FL boronic acid probe (Example 125) 30 μM, 10 minutes pre-incubation, 10 minutes reaction
T1 construct: endogenous in cells; host or cells: Escherichia coli K12, membrane protein fraction
Method: Penicillin binding proteins were isolated from Escherichia coli K12 by growth of Escherichia coli K12 from a single colony in 4 L of Luria-Bertani (LB) broth at 35° C. and 250 rpm to an OD600 nm of 0.5. The cells were harvested by centrifugation at 7,000×g for 10 min. at 4° C. Cells were resuspended and washed in 50 mM potassium phosphate pH 7.5. The cells were re-suspended in sonication buffer [50 mM Tris-HCl pH 7.5, 1 mM MgCl2, 1 mM beta-mercaptoethanol, and 5 μg/mL DNAse I] and sonicated by 4 passes of 30 seconds at 45 W on ice. The sample was clarified by centrifugation at 3,000×g to remove cell debris and unbroken cells and supernatant containing the membrane proteins was retained. The membrane proteins including the PBPs were further purified from soluble constituents by an ultracentrifugation step at 100,000×g for 30 min. at 4° C. The membrane proteins are washed twice with 10 mM sodium phosphate pH 7, resuspended in a volume of 5 mL, quantitated by BCA assay, adjusted to […] and frozen at −80° C. until use.
The adapted Bocillin FL competition binding method described herein incorporates a 15 min. pre-incubation of test compound with isolated PBPs to attempt to balance the difference in mechanism of inhibition between beta-lactams (largely irreversible covalent bond to active site Serine) and the boron-containing PBP inhibitor test compounds (reversible covalent bond to active site Serine). Briefly, 50 μL reactions consisted of 100 μg's of total membrane protein extracts containing PBPs incubated with a dilution series of test compound ranging from 0.005 μg/mL to 2,480 μg/mL in 10 mM sodium phosphate pH7 containing 350 mM NaCl. Thirty minute reactions at 35° C. were initiated by addition of […] Bocillin FL, quenched by addition of SDS-PAGE loading buffer containing sodium dodecyl sulfate (SDS) and heated for 15 minutes at 95° C. to denature proteins in preparation for SDS-polyacrylamide gel electrophoresis. The Bocillin FL labeled PBPs are then separated by SDS-PAGE in Novex NuPage 10% Bis-Tris pre-cast gels (Invitrogen). The SDS-PAGE gel, post-electrophoresis, is then washed in water to remove excess SDS for 10 minutes at room temperature and placed on the scanning bed of a GE Healthcare/Amersham Biosciences Storm 860 fluorescence scanner. The excitation wavelength is in the blue spectrum at 450 nm and the emission at 520 nm is captured by the instrument. Effective PBP inhibitors are detected by a reduction in Bocillin FL labeling of the particular PBP over the dose range of test compound in a dose-responsive manner. High molecular weight PBP 1a/1b are not resolved by these gels, thus we report HMW PBP binding results in μg/mL for PBPs 1a/1b combined as well as for PBP2 and PBP3.
To determine the ability of boronic acid-based test PBP inhibitors to bind Penicillin Binding Proteins (PBPs), a competition binding assay using a Bodipy-FL-labeled boronic acid PBP inhibitor (Example 125) was adapted from the classical method used to assess PBP potency of beta-lactams using Bocillin-FL (fluorescently-labeled penicillin V). The method is identical to that described in Example I for the Bocillin-FL competition binding assay with the following exceptions, the Bodipy-FL boronic acid probe (Example 125) is used at a final concentration of 30 μM, pre-incubation time of test compound with PBP enzymes is 10 minutes and reaction time is set for 10 minutes and reactions are prepared for SDS-PAGE analysis by simply adding SDS-containing loading buffer. Representative results are shown in Table 5, where A represents a potency of >1000 μg/mL, B represents a potency between 64 and 1000 μg/mL inclusive, and C represents a potency of <64 μg/mL. NT=Not Tested.

E. coli K12 PBP1a/b = test: Bocillin FL competition binding assay, PBP1a/1b combined; parameters: species or system Escherichia coli K12; conditions: 15 min pre-incubation, PBP 1a/1b combined
Method in brief: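 E. coli K12 membrane extracts (100 µg protein) pre-incubated 15 min with compound (0.005–2,480 µg/mL) in pH 7 phosphate/350 mM NaCl, then labelled with Bocillin FL 30 min at 35°C; SDS-PAGE fluorescence (ex 450/em 520 nm), μg/mL reported. PBP1a/1b unresolved, reported combined.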

T1 sequence (P02919 whole entry): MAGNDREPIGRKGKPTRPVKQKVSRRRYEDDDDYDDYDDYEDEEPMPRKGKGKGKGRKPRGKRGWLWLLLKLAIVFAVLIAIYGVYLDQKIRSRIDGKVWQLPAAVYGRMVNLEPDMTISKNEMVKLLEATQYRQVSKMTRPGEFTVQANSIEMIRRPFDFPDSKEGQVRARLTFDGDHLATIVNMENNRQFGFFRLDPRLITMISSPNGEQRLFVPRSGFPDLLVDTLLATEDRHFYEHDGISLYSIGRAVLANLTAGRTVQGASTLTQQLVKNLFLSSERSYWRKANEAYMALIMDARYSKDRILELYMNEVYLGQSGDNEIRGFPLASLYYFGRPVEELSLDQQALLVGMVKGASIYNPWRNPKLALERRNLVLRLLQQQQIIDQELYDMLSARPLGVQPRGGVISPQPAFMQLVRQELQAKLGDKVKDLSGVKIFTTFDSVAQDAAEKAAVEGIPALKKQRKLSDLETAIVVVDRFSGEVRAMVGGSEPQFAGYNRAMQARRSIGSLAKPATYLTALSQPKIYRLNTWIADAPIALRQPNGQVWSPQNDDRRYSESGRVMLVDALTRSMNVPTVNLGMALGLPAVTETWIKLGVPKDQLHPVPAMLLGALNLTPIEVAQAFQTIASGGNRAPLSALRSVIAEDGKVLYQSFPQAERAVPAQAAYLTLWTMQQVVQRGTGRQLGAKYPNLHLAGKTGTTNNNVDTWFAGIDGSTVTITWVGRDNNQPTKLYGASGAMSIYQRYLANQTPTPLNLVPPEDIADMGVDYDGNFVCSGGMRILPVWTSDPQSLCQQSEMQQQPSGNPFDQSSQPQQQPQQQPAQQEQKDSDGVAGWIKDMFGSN

Nc1nc(/C(=N/O)C(=O)N[C@H]2Cc3cccc(C(=O)O)c3OB2O)cs1 [Example 6, (R,Z)-3-(2-(2-aminothiazol-4-yl)-2-(hydroxyimino)acetamido)-2-hydroxy-3,4-dihydro-2H-benzo[e][1,2]oxaborinine-8-carboxylic Acid]
MIC [1]: 16 µg/mL
Effect of expressed β-lactamase on MIC [2]: the same MIC values in strains regardless of the β-lactamase expressed
MIC [3]: 16 µg/mL
MIC [4]: < 64 µg/mL
E. coli K12 PBP1b Potency (E. coli K12 PBP1b): C (C represents a potency of <64 μg/mL)
E. coli K12 PBP1a/b Potency (E. coli K12 PBP1a/b): C (C represents a potency of <64 μg/mL)
